# Measurements as given in patent US11260241B2, “Method of treating multiple sclerosis” (Wisconsin Alumni Research Foundation, priority 2010, dated 2022).
# Marks after values point to notes of the source that are not given here.
# Columns and labels:
# Format in all cases: in vivo, C57BL/6 mice
# EAE = EAE model of MS induced with MOG35-55, daily clinical scoring; details: for Incidence: from 10 days before immunization, 25 days monitoring; for CDI / Day of Onset / Peak Severity: mean ± SD; for Peak Severity: score scale 0-5
# [1] = Body weight monitoring (weight loss and toxicity)
# Protocol: Beginning 10 days prior to immunization, mice were fed a purified 0.87% calcium diet delivering the indicated doses of either 25(OH)D3 or 1,25(OH)2D3. Treatment continued for the duration of the experiment. (A) Average clinical EAE scores were determined daily for vehicle, 25(OH)D3, and 1,25(OH)2D3-treated mice (n=15-17). (B) Mice were weighed weekly (±SD) throughout the study to monitor weight loss and toxicity. (C) Serum calcium levels (±SD) were determined at the end of the experiment using a clinical chemistry analyzer. (D) Serum 25(OH)D3 levels (±SD) were determined at the termination of the experiment. *P<0.05 compared to control group. Vitamin D toxicity is known to cause weight loss and a dramatic rise in serum calcium levels. To assess the effect of UV treatment on these parameters, mice were weighed at selected time intervals throughout the study, and serum calcium levels were determined at the termination of the experiment. […] Furthermore, there were no detected difference in serum calcium levels at either the end of the UVB-pretreatment period (data not shown) or at the termination of the experiment (FIG. 1C). In addition, serum 25(OH)D3 levels were determined both at the end of the UVB-pretreatment period and at the termination of the experiment. […] Corresponding levels of the 5.0 kJ/m^2 group remained elevated at the termination of the experiment.
# [2] = Analysis of serum calcium levels; details: end of experiment, vehicle 10.1 mg/dl
# Protocol: Blood samples were collected at the termination of the experiments and spun at 6000 rpm (2938 g) for 15 min, followed by a second spin at 14000 rpm (16883 g) for 1 min. Serum calcium levels were determined using the calcium L3K reagent (Genzyme Diagnostics, Charlottetown, PE Canada) and the ABX Pentra 400 clinical chemistry analyzer (Horiba-ABX Diagnostics, Irvine, Calif.).
# [3] = Analysis of serum 25(OH)D3 levels (125I-radioimmunological assay); details: dietary administration 10, 500, 1000 μg/kg per day; termination of the experiment
# Protocol: Blood samples were collected at selected time points throughout the experiment. Red blood cells were removed through two successive centrifugation steps as described above. Serum 25(OH)D3 levels were determined using a ^125I-radioimmunological assay following the manufacturer's instructions (DiaSorin, Stillwater, Minn.). Samples above the range of the standard curve were diluted prior to analysis. Radioactivity was quantified using a Cobra 5002 gamma scintillation counter (PerkinElmer, Shelton, Conn.).
# [4] = 2.5 μg/kg per day in purified diet
# [5] = 10 μg/kg per day in purified diet
# [6] = 500 μg/kg per day in purified diet
# [7] = 1000 μg/kg per day in purified diet
compound,measurement,setting,value
"C=C1/C(=C\C=C2/CCC[C@]3(C)[C@@H]([C@H](C)CCCC(C)(C)O)CC[C@@H]23)C[C@@H](O)C[C@@H]1O [1,25(OH)2D3, 1α,25-dihydroxyvitamin D3]",Induction of EAE,EAE; 2.5 μg/kg per day,prevented the induction of EAE
same,Incidence,EAE; [4],35% (6/17)†
same,CDI,EAE; [4],4 ± 7
same,Day of Onset,EAE; [4],20 ± 3
same,Peak Severity,EAE; [4],2.3 ± 0.6
same,Clinical signs of EAE,"EAE; pilot studies, 2.5 μg/kg per day (data not shown)",dramatic suppression
same,Weight of the mice at the termination of the study,"[1]; mouse, in vivo",significant decrease
"C=C1CC[C@H](O)C/C1=C/C=C1\CCC[C@]2(C)[C@@H]([C@H](C)CCCC(C)(C)O)CC[C@@H]12 [25(OH)D3, 25-hydroxyvitamin D3]","Effect on incidence, onset, severity, or progression of EAE",EAE; 10 μg/kg per day,no significant effect
same,Incidence,EAE; [5],88% (15/17)
same,CDI,EAE; [5],23 ± 16
same,Day of Onset,EAE; [5],14 ± 3
same,Peak Severity,EAE; [5],2.9 ± 0.9
same,Clinical EAE scores,EAE; 500 μg/kg per day,slight suppression
same,Incidence,EAE; [6],82% (14/17)
same,CDI,EAE; [6],19 ± 12
same,Day of Onset,EAE; [6],16 ± 4
same,Peak Severity,EAE; [6],2.7 ± 0.6
same,Suppression of EAE,EAE; 1000 μg/kg per day,modest suppression
same,Incidence,EAE; [7],82% (14/17)
same,CDI,EAE; [7],17 ± 11
same,Day of Onset,EAE; [7],16 ± 3
same,Peak Severity,EAE; [7],2.6 ± 0.6
same,Weight of the mice at the termination of the study,[1]; 1000 μg/kg per day in diet,significant decrease
same,Serum calcium levels,[2]; 10 μg/kg per day in diet,9.9 mg/dL
same,Serum calcium levels,[2]; 500 μg/kg per day in diet,12.9 mg/dL
same,Serum calcium levels,[2]; 1000 μg/kg per day in diet,14.2 mg/dL
same,Serum 25(OH)D3 levels,[3],dose-dependent increase
